# Test results published in patent publication US20260035355A1, “COMPOUND, PHARMACEUTICAL COMPOSITION COMPRISING SAME, AND USE THEREOF” (SHENZHEN ZHONGGE BIOLOGICAL TECHNOLOGY CO., LTD., priority 2022, published 2026).
# Tested on: not listed separately
# Test: Pharmacokinetic evaluation in mice
# Format: in vivo
# Details: mouse, in vivo
# Procedure: The test compounds were dissolved in vehicles to prepare clear solutions or homogeneous suspensions. Three mice were placed in each group and received an intravenous (IV) administration via the tail vein at 1 mg/kg and an oral (PO) administration at 30 mg/kg. Blood samples were collected at 0.083 h, 0.25 h, 0.5 h, 1 h, 2 h, 4 h, 8 h, and 24 h after the intravenous administration, and at 0.25 h, 0.5 h, 1 h, 2 h, 4 h, 6 h, 8 h, and 24 h after the oral administration. Plasma samples were centrifuged, and the supernatant was collected to prepare samples, which were then quantitatively analyzed by LC/MS/MS.
row,Structure (SMILES),pharmacokinetic properties in mice (in words)
1,O=C(COc1ccc(Cl)c(F)c1)NC1CC2(C1)CC(c1nnc(N3CC(OC(F)(F)F)C3)o1)C2 (stereo not drawn) [III-1],excellent pharmacokinetic properties in mice

# Same assay, conditions: plasma; mouse IV 1 mg/kg
Structure (SMILES),AUC(0-inf) [ng·h/mL],C0 [ng/mL],clearance [mL/min/kg],half-life [h]
O=C(COc1ccc(Cl)c(F)c1)NC1CC2(C1)CC(c1nnc(N3CC(OC(F)(F)F)C3)o1)C2 (stereo not drawn) [III-1],2230,1340,7.5,2.07

# Same assay, conditions: plasma; mouse IV 1 mg/kg; read-out: Vss
row,Structure (SMILES),Vd [L/kg]
1,O=C(COc1ccc(Cl)c(F)c1)NC1CC2(C1)CC(c1nnc(N3CC(OC(F)(F)F)C3)o1)C2 (stereo not drawn) [III-1],1.18

# Same assay, conditions: plasma; mouse PO 30 mg/kg
Structure (SMILES),AUC(0-inf) [ng·h/mL],Cmax [ng/mL],Tmax [h],bioavailability [%],half-life [h]
O=C(COc1ccc(Cl)c(F)c1)NC1CC2(C1)CC(c1nnc(N3CC(OC(F)(F)F)C3)o1)C2 (stereo not drawn) [III-1],111000,21500,1.33,177,1.93

# Biological target: T1, eIF2B (Homo sapiens, UniProt P49770+Q9UI10)
# T1 construct: endogenous in cells; host or cells: HEK293T/17-ATF4 uORF-Luc-Puro monoclonal cells
# Test: ATF4-Luc assay (ATF4 luciferase reporter, thapsigargin-induced stress)
# Format: cell-based
# Details: HEK293T/17-ATF4 uORF-Luc-Puro monoclonal cells, 50 nM thapsigargin, incubated for 6 hours
# Excerpt: The ATF4 luciferase reporter plasmid consists of two parts, i.e., the 5′ untranslated region sequence of the ATF4 gene and the luciferase coding sequence. Specifically, the ATF4 5′ untranslated region sequence (NCBI database number BC022088.2) containing two upstream open reading frames (uORFs), and the firefly luciferase encoding gene were cloned into the pLVX-Puro vector (YouBio, VT1465). The packaging plasmids of lentivirus were psPAX2 (YouBio, VT1444) and pMD2.G (YouBio, VT1443). 650,000 HEK293T cells were seeded per well of a 6-well plate and cultured overnight in a 5% CO2 incubator. The cells were transfected with the packaged lentivirus for 48 hours and then centrifuged, and the supernatant was discarded. The medium was replaced and changed to the DMEM complete medium containing 0.8 μg/ml puromycin, and the cells were resuspended and then cultured. After one week of cell screening with puromycin, the surviving cells were HEK293T-ATF4 uORF-Luc-Puro polyclonal cells. 200 polyclonal cells were taken and subjected to limiting gradient dilution by using a 96-well plate, so as to obtain monoclonal cells.
# The specific method for screening the monoclonal cells involves: placing the 200 polyclonal cells in well A1 of the 96-well plate; step one: performing gradient dilution from columns A1 to H1 at a ratio of 1:2; step two: performing gradient dilution from rows A to H, with each row from wells 1 to 12 at a ratio of 1:2; marking the wells with a theoretical cell number less than 0.5 and observing one by one under a microscope; marking the wells with only one cell; and culturing the cells for two weeks to obtain the monoclonal cells.
# By using this cell line and the cold fluorescence readings, the translational regulation of ATF4 can be detected, and the activity of eIF2B activated by the compounds can be tested.
# The specific experimental process is as follows: 6000 HEK293T/17-ATF4 uORF-Luc-Puro monoclonal cells were plated in a 384-well plate and allowed to adhere overnight. The test compounds were dissolved in DMSO and diluted to 10 different concentrations, which were respectively added together with 50 nM thapsigargin to the cell culture medium and incubated for 6 hours, wherein the thapsigargin was used to cause cellular stress and upregulate the protein translation of ATF4. Six hours after the addition, the cells were lysed using the One-Glo Luciferase Assay Kit (Promega #E6120), and then the cold fluorescence values were read using the LUM program of the EnVision 2104 plate reader.
# EC50 was calculated based on the fluorescence values at 9 concentrations (0.1 nM, 0.3 nM, 1.0 nM, 3.0 nM, 10.0 nM, 30.0 nM, 100.0 nM, 300.0 nM and 1000.0 nM) of each compound and recorded in Table 1.
# The ATF4 reporter expression was calculated as follows:
# ATF4 reporter expression=(ave_sample-ave_vc)/(ave_pc-ave_vc)
# where ave_vc represents the average signal value of negative controls, ave_pc represents the average signal value of positive controls, and ave_sample represents the average signal value of samples.
# The dose-response curves were fitted, and the EC50 values were calculated.
# The nonlinear regression log(inhibitor) vs. response—variable slope (four parameters) method of GraphPad 9 software was used to fit the corresponding relationship between the ATF4 reporter expression and the compound concentration.
# The X-axis represents the log value of the compound concentration; and the Y-axis represents the ATF4 reporter expression.
# T1 sequence (P49770 whole entry): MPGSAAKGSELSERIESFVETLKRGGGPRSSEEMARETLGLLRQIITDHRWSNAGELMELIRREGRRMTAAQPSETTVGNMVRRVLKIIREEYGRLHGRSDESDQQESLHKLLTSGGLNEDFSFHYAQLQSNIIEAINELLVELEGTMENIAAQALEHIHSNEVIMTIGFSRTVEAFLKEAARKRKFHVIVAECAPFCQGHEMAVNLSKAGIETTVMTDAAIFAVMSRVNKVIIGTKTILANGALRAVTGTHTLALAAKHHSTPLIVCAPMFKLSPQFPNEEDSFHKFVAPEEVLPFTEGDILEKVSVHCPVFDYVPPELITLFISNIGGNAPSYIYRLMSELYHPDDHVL
# T1 sequence (Q9UI10 whole entry): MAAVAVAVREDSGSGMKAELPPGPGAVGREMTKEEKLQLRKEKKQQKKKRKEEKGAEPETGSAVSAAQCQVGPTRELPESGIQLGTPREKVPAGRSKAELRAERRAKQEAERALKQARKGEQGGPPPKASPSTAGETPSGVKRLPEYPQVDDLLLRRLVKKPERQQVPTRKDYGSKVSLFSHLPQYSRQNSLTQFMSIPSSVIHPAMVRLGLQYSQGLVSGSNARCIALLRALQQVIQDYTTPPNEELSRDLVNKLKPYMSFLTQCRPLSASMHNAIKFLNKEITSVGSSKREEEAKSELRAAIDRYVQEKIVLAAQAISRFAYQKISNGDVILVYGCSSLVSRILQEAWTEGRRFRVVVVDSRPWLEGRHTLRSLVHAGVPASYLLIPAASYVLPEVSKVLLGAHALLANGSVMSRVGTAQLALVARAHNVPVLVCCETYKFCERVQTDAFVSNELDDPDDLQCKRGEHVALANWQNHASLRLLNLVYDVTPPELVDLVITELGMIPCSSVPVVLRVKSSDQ
# T1 sequence (Q14232 whole entry partner): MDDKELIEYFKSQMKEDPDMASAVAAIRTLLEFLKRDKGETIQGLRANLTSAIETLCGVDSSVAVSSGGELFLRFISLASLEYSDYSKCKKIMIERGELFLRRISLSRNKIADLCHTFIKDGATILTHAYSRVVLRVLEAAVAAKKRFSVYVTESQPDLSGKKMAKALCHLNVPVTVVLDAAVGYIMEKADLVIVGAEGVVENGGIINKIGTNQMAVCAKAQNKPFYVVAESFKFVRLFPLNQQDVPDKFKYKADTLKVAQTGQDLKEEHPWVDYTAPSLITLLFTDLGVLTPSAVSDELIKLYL
# T1 sequence (Q9NR50 whole entry partner): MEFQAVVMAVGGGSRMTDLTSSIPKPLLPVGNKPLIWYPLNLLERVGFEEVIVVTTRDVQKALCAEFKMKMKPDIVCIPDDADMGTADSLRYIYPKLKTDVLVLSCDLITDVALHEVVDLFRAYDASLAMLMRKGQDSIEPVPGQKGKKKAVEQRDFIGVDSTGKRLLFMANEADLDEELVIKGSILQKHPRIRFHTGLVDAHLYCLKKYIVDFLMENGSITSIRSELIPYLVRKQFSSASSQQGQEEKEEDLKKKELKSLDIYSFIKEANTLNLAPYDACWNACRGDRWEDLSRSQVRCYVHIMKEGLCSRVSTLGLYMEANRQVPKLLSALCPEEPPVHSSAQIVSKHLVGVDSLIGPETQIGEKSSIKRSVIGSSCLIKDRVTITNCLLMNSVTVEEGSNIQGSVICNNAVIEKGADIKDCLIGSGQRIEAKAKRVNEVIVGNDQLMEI
# T1 sequence (Q13144 whole entry partner): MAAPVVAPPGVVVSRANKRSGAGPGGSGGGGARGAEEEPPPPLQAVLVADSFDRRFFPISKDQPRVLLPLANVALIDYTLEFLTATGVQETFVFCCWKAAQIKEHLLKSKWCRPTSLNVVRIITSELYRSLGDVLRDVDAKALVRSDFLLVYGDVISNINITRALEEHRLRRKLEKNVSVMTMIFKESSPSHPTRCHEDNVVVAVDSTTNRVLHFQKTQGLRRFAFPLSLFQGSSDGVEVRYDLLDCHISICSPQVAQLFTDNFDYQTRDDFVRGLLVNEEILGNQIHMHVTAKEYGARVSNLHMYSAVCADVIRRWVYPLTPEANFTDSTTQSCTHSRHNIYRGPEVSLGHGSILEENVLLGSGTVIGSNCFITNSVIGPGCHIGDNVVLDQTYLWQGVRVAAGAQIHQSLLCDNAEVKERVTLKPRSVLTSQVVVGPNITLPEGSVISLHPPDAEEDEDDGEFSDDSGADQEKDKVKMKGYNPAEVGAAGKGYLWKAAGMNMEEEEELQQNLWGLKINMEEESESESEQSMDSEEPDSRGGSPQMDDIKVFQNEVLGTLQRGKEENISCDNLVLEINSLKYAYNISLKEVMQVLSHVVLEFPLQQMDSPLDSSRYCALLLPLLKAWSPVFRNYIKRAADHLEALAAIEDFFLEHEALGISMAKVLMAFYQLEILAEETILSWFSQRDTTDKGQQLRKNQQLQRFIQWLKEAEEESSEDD
row,Structure (SMILES),EC50 [nM]
1,O=C(COc1ccc(Cl)c(F)c1)NC1CCC2(CC1)CN(C(=O)C1CNc3cc(Cl)ccc3O1)C2 (stereo not drawn) [V-12],> 100
2,O=C(COc1ccc(Cl)c(F)c1)NC1CC12CCN(NC(=O)c1cc3cc(Cl)ccc3o1)CC2 (stereo not drawn) [I-6],> 100
3,O=C(CO[C@H]1C[C@@H](OC(F)(F)F)C1)NC1CC2(CCN(C(=O)c3cc4cc(Cl)ccc4o3)CC2)C1 [IV-16],> 100
4,O=C(COc1ccc(Cl)c(F)c1)NC1CCC2(CC1)CN(C(=O)COc1ccc(Cl)c(F)c1)C2 [V-10],10 to 100
5,O=C(COc1ccc(Cl)c(F)c1)NC1COC2(C1)CN(C(=O)[C@H]1CNc3cc(Cl)ccc3O1)C2 (stereo partly drawn) [II-13],> 100
6,O=C(COc1ccc(Cl)c(F)c1)NC1CC12CCN(NC(=O)COc1ccc(Cl)c(F)c1)CC2 (stereo not drawn) [I-5],> 100
7,CN1C[C@H](C(=O)NN2CCC3(CC2)CC3NC(=O)COc2ccc(Cl)c(F)c2)Oc2ccc(Cl)cc21 (stereo partly drawn) [I-8],> 100
8,O=C(COc1ccc(Cl)c(F)c1)NC1CC2(CCN(c3nnc(-c4ccc(Cl)cc4)o3)CC2)C1 [IV-14],10 to 100
9,CN1C[C@H](C(=O)N2CC3(CC(NC(=O)COc4ccc(Cl)c(F)c4)CO3)C2)Oc2ccc(Cl)cc21 (stereo partly drawn) [II-14],> 100
10,O=C(NC1CC2(CCN(C(=O)[C@@H]3CNc4cc(Cl)ccc4O3)CC2)C1)[C@H]1CNc2cc(Cl)ccc2O1 [IV-18],10 to 100
11,O=C(COc1ccc(Cl)c(F)c1)NC1COC2(C1)CN(C(=O)COc1ccc(Cl)c(F)c1)C2 (stereo not drawn) [II-11],> 100
12,O=C(COc1ccc(Cl)c(F)c1)NC1CC12CCN(C(=O)c1cnc(C(F)F)cn1)CC2 (stereo not drawn) [I-1],> 100
13,O=C(COc1ccc(Cl)c(F)c1)NC1CC12CCN(NC(=O)[C@H]1CNc3cc(Cl)ccc3O1)CC2 (stereo partly drawn) [I-7],> 100
14,O=C(NC1CC2(CCN(C(=O)c3cc4cc(Cl)ccc4o3)CC2)C1)c1cc2cc(Cl)ccc2o1 [IV-20],< 10
15,O=C(COc1ccc(Cl)c(F)c1)NC1CC2(CCN(C(=O)[C@H]3CNc4cc(Cl)ccc4O3)CC2)C1 [IV-13],< 10

# The remaining lines, values ahead:
row,EC50 [nM],Structure (SMILES)
1,< 10,O=C(COc1ccc(Cl)c(F)c1)NC1CCC(c2nnc(N3CC(OC(F)(F)F)C3)o2)C2(CC2)C1 (stereo not drawn) [VIII-1]
2,< 10,O=C(COc1ccc(Cl)c(F)c1)NC1CC2(C1)CC(c1nnc(N3CC(OC(F)(F)F)C3)o1)C2 (stereo not drawn) [III-1]
3,10 to 100,O=C(COc1ccc(Cl)c(F)c1)NC1CC2(C1)CC(NC(=O)C1CNc3cc(Cl)ccc3O1)C2 (stereo not drawn) [III-13]
4,> 100,O=C(COc1ccc(Cl)c(F)c1)NC1CC2(C1)CC(NC(=O)c1cnc(C(F)F)cn1)C2 (stereo not drawn) [III-11]
5,> 100,CN1CC(C(=O)NC2CC3(CC(NC(=O)COc4ccc(Cl)c(F)c4)C3)C2)Oc2ccc(Cl)cc21 (stereo not drawn) [III-12]

# Tested on: not listed separately
# Test: Evaluation of cell membrane permeability
# Format: in vitro ADME
# Details: 10 μM, 120 minutes; read-out: Efflux Ratio (Papp B to A/Papp A to B)
# Procedure: (§1) The test compounds were diluted from 10 mM stock solutions to a concentration of 10 μM using the transport buffer (HBSS+BSA) and applied to the apical or basolateral side of the cell monolayer. After the incubation at 37° C., 5% CO2 and 95% relative humidity for 120 minutes, the permeability of the test compounds in the A to B direction or the B to A direction was dually determined. In addition, the efflux ratio (Papp B to A/Papp A to B) of each compound was determined. The test substances and reference substances were quantitatively analyzed by the LC-MS/MS method based on the analyte/IS peak area ratio.
row,Structure (SMILES),"efflux ratio at 120 min, 10 μM"
1,O=C(COc1ccc(Cl)c(F)c1)NC1CC2(C1)CC(c1nnc(N3CC(OC(F)(F)F)C3)o1)C2 (stereo not drawn) [III-1],1.05

# Same assay, conditions: 10 μM, transport buffer (HBSS+BSA), 37° C., 120 minutes
Structure (SMILES),"Papp A→B at 120 min, 10 μM [×10⁻⁶ cm/s]","Papp B→A at 120 min, 10 μM [×10⁻⁶ cm/s]"
O=C(COc1ccc(Cl)c(F)c1)NC1CC2(C1)CC(c1nnc(N3CC(OC(F)(F)F)C3)o1)C2 (stereo not drawn) [III-1],17.7,18.6

# Tested on: cell monolayer
# Test: Evaluation of cell membrane permeability
# Format: in vitro ADME
# Details: not given
# Procedure: as §1
Structure (SMILES),P-glycoprotein substrate (in words),cell membrane permeability (in words)
O=C(COc1ccc(Cl)c(F)c1)NC1CC2(C1)CC(c1nnc(N3CC(OC(F)(F)F)C3)o1)C2 (stereo not drawn) [III-1],not P-glycoprotein substrates,good cell membrane permeability
